Results reported in patent US20240172750A1, “5-Fluoro-4-Imino-3-Methyl-1-Tosyl-3,4-Dihydropyrimidin-2(1H)-One for Controlling Plant Diseases” (Adama Makhteshim Ltd., priority 2021, published 2024).

Legend:
[1] = test system: Microsphaera diffusa (powdery mildew)
Description: Microsphaera diffusa (powdery mildew) is artificially inoculated by spraying the inoculum on the leaves few days after the application.
To test for fungicidal control of Microsphaera diffusa (powdery mildew), the soybean plants, grown in pots, are sprayed at V2 with each of the above treatments. 5 pots with 3 soybean plants each are considered, each treatment counts for 4 replicates.
Between 14 and 21 days from the inoculation, the severity (%) of the infection is assessed.

[2] = test system: Rat; assay: Ecotoxicity: mammals, acute; type: in vivo
Description: (§1) The ecotoxicity of flumetylsulforim was investigated in numerous studies in accordance with the strict requirements for the approval of active substances in the EU.

[3] = test system: Oil seed rape; assay: Non-target terrestrial plants, vegetative vigour; type: in vivo
Description: as §1

[4] = test system: Soybean; assay: Non-target terrestrial plants, vegetative vigour; type: in vivo
Description: as §1

[5] = test system: Maize; assay: Non-target terrestrial plants, vegetative vigour; type: in vivo
Description: as §1

[6] = test system: Sunflower; assay: Non-target terrestrial plants, vegetative vigour; type: in vivo
Description: as §1

[7] = test system: Cercospora kikushi
Description: The trial is carried out in open field and no artificial inoculation is performed.
To test for fungicidal control against the late season disease, each plot (3 m×5 m) is sprayed with one of the treatments from Table 17. Each treatment is made of 4 replicates.
Three applications are made, the first approximately 14 days before flowering followed by a second one at R1 and the third at R1+14 days. A fourth application is considered based on the development of the disease.
Assessments are done before all sprays and at 7, 14 and 21 days after the last spray. The whole plot is assessed considering the 3 plant parts (bottom, mid and upper). The final grade is the mean of the 3 scores (bottom, mid and upper).
The whole plot is assessed for defoliation. The defoliation assessment takes place at R6-R7 stage when the untreated control reaches 80 to 90% defoliation. The harvest assessment is done from the middle of the plot covering at least 8 m 2/plot.

[8] = test system: Colletotrichum dematium var. truncatum; assay: Pot trial, Colletotrichum dematium var. truncatum on soybean; type: in vivo; settings: 50-200 g ai/ha
Description: The inoculation of Corynespora cassiicola and Colletotrichum dematium var. truncatum is done with infected leaves from the field few days after the application.
To test for fungicidal control against the two necrotrophic diseases, the soybean plants, grown in pots, are sprayed at V2 with each of the above treatments. 5 pots with 3 soybean plants each are considered, each treatment counts for 4 replicates.
Between 14 and 21 days from the inoculation the severity (%) of the infection is assessed.

[9] = test system: Ramularia areola
Description: The objective of the trial is to assess the fungicidal effect of ADF-16 against Ramularia areola on cotton, compared to an untreated control and a reference product.
ADF-16 is tested at different doses, namely at 50, 100, 150 and 200 g ai/ha as depicted in the table below.
Ramularia areola is artificially inoculated by spraying the conidia on the plants, previously sprayed with the fungicide.
To test for fungicidal control of Ramularia areola, the cotton plants, grown in pots, are sprayed at first true leaf fully open with each of the above treatments. 5 pots with 3 cotton plants each are considered, each treatment counts for 4 replicates.
Between 25 and 30 days from the inoculation the severity (%) of the infection is assessed.

[10] = test system: Soil microbial activity (Nitrogen activity); assay: Ecotoxicity: soil microbial activity, long-term
Description: as §1

[11] = test system: Botrytis cinerea; assay: Grey mould in strawberry, pot trial, foliar treatment; type: in vivo; settings: 250 OD at 450 g ai/ha, 3 applications, last assessment
Description: The compound of formula I 250 OD was tested at different doses, namely 400, 450 and 500 g ai/ha as depicted in the table below and compared to an untreated control as well as two reference products, SCALA (pyrimethanil 400 g/L) at 1000 g ai/ha and SIGNUM (boscalid+pyraclostrobin 26.7+[…]) at 600 g ai/ha.
Botrytis cinerea was artificial inoculated by spraying the inoculum on the leaves 3-4 days before the application.
To test for fungicidal control of Botrytis cinerea, the strawberry plants, grown in pots, were sprayed with each of the above treatments. 5 pots of 22 cm of diameter (the soil used for the trial is a mix of peat and perlite) with 1 plant each were used, 1 pot per replicate (each treatment is made of 4 replicates) was considered.
Each of the treatments was applied 3 times (ABC) according to the disease development as follows: A, early curative (before the disease symptoms appear; 3-4 days after the artificial inoculation), B, 7-10 days from A and C, to be evaluated in function of the disease development (7-10 days from B).
At the first symptoms the following parameters were assessed: • percentage of affected leaf area (% severity) • percentage of affected leaves (% incidence) • percentage of affected fruit area (% severity) • percentage of affected fruits (% incidence)

[12] = test system: Honeybee; assay: Ecotoxicity: honeybee, chronic larvae; type: in vivo
Description: as §1

[13] = test system: M. fijiensis; assay: Black sigatoka on banana plants in climatic chamber; type: in vivo, Mycosphaerella fijiensis
Description: The banana plants used for this experimentation were obtained from vitro-plants Cavendish type furnished by VITROPIC S.A. (France). One-month old plants (2 fully deployed leaves: F2 (oldest leaf) and F1 and the cigar leaf) are treated (see details in the table below) were inoculated with a calibrated mycelial seed-inoculum of a mixture of 4 M. fijiensis strains (for each treatment, 3 repetitions (banana plants) are considered). Banana leaves of each plant were treated on their upper (adaxial) and lower (abaxial) face and then incubated for one hour under a laminar flow in order to let dry the fungicide droplets. After inoculation, banana plants were transferred in climatic chamber: 25° C. day/18° C. night, photoperiod of 16 h light/8 h dark and 100% Relative Humidity. From 28 days to 56 days post inoculation (dpi) each banana plants is observed and the disease intensity severity (DSI: Disease Severity Index) is evaluated over time in order to determine the AUDPC (Area Under Disease Progress Curve)—Table 12, and the fungicidal efficacy expressed in percent of the untreated control—Table 13.

[14] = test system: Pseudoperonospora cubensis (downy mildew); assay: Glasshouse trial, downy mildew in cucumber, foliar treatment; type: in vivo; settings: cucumber (Bosco); 250 OD at 100, 125, 150, 200 g ai/ha, 3 applications; 21 DA-C
Description: The trial was carried out in a commercial glasshouse in Vittoria (RG)—Sicily region (Southern Italy) to evaluate the efficacy against Pseudoperonospora cubensis (downy mildew) and the selectivity on cucumber (Bosco variety) of ADF-16 250 OD at 100, 125, 150 and 200 g ai/ha in comparison to AIRONE PIU at 630 g ai/ha and EQUATION PRO at 21 g ai/ha.
Each plot (2 m×5 m, 2 rows per plot) consisted of at least 10 plants and 4 replicates per treatment were carried out. The soil used for the trial was a mix of peat and perlite. 3 applications were carried out as follows: A: early curative (disease symptoms lower than 5%), B: 7-10 days from A and C: 7-10 days from B. The corresponding treatments dates were: 16 Nov. 2020 (BBCH 64), 23 Nov. 2020 (BBCH 65) and 30th of November (BBCH 67)
The application was carried out with a backpack sprayer OleomacSP126 and a water volume of 1000 L/ha.
Phytotoxicity, if any, was assessed 7, 14 and 21 days form each application and starting from the first symptoms the percentage of affected leaf area (% severity) as well as the percentage of affected leaves (% incidence) was measured.

[15] = wheats and barley at 2 × 100 g/ha

In the case of Cc1ccc(S(=O)(=O)n2cc(F)c(=N)n(C)c2=O)cc1 [compound of formula I, 5-fluoro-4-imino-3-methyl-1-tosyl-3,4-dihydropyrimidin-2(1H)-one], the phytotoxicity ([1]; in vivo) is reported as “no significant phytotoxicity”, the “control of Microsphaera diffusa” value ([1]; soybean, 50-200 g ai/ha) is reported as “effectively controls” and the LD50 [2] is reported as “LD50 > 2000 mg/kg bw”. The “Risk at current use pattern” value [2, 15] was “Acceptable”, the ER50 [3] was “ER50 > 189 g/ha” and the “Risk at current use pattern” value [3, 15] was “Acceptable”. The ER50 [4] was “ER50 > 189 g/ha”, the “Risk at current use pattern” value [4, 15] was “Acceptable” and the ER50 [5] was “ER50 > 189 g/ha”. The “Risk at current use pattern” value [5, 15] was “Acceptable”, the ER50 [6] was “ER50 > 189 g/ha” and the “Risk at current use pattern” value [6, 15] was “Acceptable”. The phytotoxicity ([7]; in vivo) was “no significant phytotoxicity”, the “control of Cercospora kikushi” value ([7]; soybean, 50, 100 and 200 g ai/ha) was “effectively controls” and the “control of Colletotrichum dematium var. truncatum” value [8] was “effectively controls”. For the same molecule, the “control of Ramularia areola” value ([9]; cotton, 50-200 g ai/ha) was “effectively controls”, the phytotoxicity ([9]; in vivo) was “no significant phytotoxicity” and the “Ecotoxicity endpoint (nitrogen activity)” value ([10]; soil microbial activity) was over 10.3 mg/kg dws. For the same molecule, the “Risk at current use pattern” value ([10]; soil microbial nitrogen activity, wheats and barley at 2 × 100 g/ha) was “Acceptable”, the “control (fungicide efficacy on leaf severity)” value [11] was “more than 90%” and the NOEC [12] was “NOEC > 250 mg/kg diet”. The “Risk at current use pattern” value [12, 15] was “Acceptable”, the “control of Mycosphaerella fijiensis in banana (conclusion)” value [13] was “efficiently controlling” and the “control of the disease (downy mildew)” value [14] was “significant control of the disease”.
